The text below walks through data of US20260092071A1, “COMPOUNDS AND COMPOSITIONS AS SMARCA2/4 DEGRADERS AND USES THEREOF” (REGENTS OF THE UNIVERSITY OF MICHIGAN, priority 2022, published 2026).

Assay [1] deals with SMARCA4-deficient cancer cell lines. To be noted: pharmacological studies; cited from earlier work.
The next assay has as its target SMARCA2 (Homo sapiens, UniProt P51531). Kind of assay: HiBiT assay for protein degradation, Hela SMARCA2-HiBiT cells (A series). It counts as cell-based. More on the design: Hela cells were genetically modified via CRISPR/Cas9 to fuse HiBiT to the carboxy terminus of SMARCA2; host or cells: HeLa (CRISPR/Cas9 HiBiT knock-in). The conditions noted are these: for DC50: read-out: SMARC A2 Hela HiBit DC50; for Dmax: read-out: SMARC A2 Hela HiBit Dmax (%). In outline:
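SMARCA2 degradation was measured in HeLa cells whose endogenous SMARCA2 carries a carboxy-terminal HiBiT tag introduced by CRISPR/Cas9 (Promega CS302365). Cells were maintained in DMEM with FBS and penicillin-streptomycin. SMARCA2 levels were read at the end of the experiment by Nano-Glo® HiBiT lytic luminescence (Promega N3050) and analyzed in GraphPad Prism.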

In a further assay the target is SMARCA4 (Homo sapiens, UniProt P51532). Kind of assay: HiBiT assay for protein degradation, Hela SMARCA4-HiBiT cells (A series). It counts as cell-based. More on the design: fuse HiBiT to the carboxy terminus of SMARCA2 (Promega CS302365) or SMARCA4 (Promega CS3023225); host or cells: HeLa (CRISPR/Cas9 HiBiT knock-in). The conditions noted are these: for DC50: read-out: SMARC A4 Hela HiBit DC50. In outline: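 SMARCA4 degradation was measured in HeLa cells in which HiBiT had been knocked into the SMARCA4 carboxy terminus via CRISPR/Cas9 (Promega CS3023225). Cells were maintained in DMEM with FBS and penicillin-streptomycin. At the end of treatment, SMARCA4 levels were read by lytic HiBiT luminescence (Nano-Glo®, Promega N3050), and data were analyzed with GraphPad Prism.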
SMARCA4, sequence (P51532 whole entry): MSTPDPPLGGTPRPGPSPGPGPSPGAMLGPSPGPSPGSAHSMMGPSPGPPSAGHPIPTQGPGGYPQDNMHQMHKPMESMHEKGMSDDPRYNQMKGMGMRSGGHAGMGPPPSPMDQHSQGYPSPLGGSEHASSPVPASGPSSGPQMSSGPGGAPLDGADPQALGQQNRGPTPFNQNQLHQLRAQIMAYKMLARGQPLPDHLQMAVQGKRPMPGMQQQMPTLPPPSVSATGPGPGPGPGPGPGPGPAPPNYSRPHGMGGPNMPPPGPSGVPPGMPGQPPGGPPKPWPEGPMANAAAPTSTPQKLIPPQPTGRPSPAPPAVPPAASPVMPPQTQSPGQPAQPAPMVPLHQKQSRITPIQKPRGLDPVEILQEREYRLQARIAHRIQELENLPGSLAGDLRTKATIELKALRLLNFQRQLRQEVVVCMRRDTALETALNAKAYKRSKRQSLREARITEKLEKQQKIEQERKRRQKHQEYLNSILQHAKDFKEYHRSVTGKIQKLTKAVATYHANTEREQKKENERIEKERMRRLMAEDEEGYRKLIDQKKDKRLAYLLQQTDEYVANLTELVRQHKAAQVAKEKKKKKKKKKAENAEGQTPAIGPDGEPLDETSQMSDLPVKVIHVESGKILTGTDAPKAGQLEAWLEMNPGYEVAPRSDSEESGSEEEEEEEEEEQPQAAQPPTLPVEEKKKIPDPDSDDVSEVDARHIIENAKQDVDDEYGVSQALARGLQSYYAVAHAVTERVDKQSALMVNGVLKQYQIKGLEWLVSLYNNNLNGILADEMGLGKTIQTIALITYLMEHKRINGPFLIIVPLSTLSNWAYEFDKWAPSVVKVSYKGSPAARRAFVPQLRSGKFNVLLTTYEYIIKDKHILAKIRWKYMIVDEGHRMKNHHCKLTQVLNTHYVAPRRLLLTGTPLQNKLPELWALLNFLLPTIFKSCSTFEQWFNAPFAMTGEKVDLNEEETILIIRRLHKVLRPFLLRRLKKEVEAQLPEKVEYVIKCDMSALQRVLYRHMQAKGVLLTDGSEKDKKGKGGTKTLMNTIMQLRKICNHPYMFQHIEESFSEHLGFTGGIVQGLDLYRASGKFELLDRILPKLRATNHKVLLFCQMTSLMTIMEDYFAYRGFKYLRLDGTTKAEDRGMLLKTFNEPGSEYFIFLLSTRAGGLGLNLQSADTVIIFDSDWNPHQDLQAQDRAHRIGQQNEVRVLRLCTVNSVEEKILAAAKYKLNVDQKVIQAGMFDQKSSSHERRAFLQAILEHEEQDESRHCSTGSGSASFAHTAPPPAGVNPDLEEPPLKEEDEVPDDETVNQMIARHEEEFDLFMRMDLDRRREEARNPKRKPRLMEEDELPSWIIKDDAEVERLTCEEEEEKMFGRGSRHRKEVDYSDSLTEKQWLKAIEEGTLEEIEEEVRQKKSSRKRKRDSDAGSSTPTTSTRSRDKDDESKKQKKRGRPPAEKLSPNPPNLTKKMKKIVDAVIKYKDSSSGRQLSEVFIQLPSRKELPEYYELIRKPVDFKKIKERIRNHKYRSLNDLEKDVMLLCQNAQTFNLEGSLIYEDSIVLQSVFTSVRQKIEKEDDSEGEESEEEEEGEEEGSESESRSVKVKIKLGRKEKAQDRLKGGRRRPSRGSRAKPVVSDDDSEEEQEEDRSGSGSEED

Where [2] appears, read: Hela SMARCA2-HiBiT cells, 24 hours treatment.
Setting [3] is: Hela SMARCA4-HiBiT cells, 24 hours treatment.
Setting [4] is: Hela SMARCA4-HiBiT cells, 24 hours treatment, read-out: SMARC A4 Hela HiBit Dmax.

Like-named read-outs stand apart in the source and are kept apart here. A value given as a limit tells only on which side of the number the result lay.

SMARCA2, sequence (P51531 whole entry): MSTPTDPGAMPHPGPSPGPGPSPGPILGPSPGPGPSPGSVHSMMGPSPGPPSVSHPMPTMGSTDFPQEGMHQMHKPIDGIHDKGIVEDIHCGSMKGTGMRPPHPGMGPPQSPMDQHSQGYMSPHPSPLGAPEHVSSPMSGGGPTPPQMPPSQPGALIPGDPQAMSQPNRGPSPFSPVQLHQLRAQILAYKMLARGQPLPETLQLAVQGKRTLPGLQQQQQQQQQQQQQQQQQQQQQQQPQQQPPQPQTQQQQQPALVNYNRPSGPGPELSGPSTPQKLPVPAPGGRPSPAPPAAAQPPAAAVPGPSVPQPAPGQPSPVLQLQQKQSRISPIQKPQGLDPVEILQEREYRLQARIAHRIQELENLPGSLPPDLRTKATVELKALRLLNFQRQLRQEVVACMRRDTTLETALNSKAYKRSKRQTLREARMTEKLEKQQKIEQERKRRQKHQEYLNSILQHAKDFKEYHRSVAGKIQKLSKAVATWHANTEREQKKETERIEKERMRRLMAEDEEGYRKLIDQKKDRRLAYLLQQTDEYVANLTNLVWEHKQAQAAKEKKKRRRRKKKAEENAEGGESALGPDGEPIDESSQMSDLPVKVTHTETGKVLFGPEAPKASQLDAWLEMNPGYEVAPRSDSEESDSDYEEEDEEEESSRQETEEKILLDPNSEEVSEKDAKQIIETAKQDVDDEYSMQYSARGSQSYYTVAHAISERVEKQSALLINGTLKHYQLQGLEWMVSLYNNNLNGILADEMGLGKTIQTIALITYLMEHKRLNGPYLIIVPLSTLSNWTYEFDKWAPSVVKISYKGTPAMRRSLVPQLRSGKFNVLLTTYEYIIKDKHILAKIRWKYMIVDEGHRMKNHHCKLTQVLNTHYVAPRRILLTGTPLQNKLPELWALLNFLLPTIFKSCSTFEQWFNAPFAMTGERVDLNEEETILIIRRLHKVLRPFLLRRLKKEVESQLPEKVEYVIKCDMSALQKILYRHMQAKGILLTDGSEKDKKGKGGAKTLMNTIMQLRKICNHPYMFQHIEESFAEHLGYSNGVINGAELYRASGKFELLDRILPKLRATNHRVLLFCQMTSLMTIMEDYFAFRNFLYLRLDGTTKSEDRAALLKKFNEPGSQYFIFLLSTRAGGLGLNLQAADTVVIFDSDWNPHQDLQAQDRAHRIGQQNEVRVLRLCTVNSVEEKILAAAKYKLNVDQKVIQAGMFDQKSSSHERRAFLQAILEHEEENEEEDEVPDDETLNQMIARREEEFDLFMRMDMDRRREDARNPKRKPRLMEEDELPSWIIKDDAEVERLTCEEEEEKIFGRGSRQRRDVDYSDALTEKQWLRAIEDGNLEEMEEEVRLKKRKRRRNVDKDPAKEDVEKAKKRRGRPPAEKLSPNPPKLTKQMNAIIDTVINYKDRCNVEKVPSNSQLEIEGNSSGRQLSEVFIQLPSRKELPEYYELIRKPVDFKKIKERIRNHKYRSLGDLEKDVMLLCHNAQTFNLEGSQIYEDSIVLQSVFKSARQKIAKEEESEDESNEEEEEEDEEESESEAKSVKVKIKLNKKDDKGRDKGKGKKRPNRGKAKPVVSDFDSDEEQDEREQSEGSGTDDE

On to `O=C(/C=C/N1C[C@H]2C[C@@H]1CN2c1ccccn1)c1ccccc1O` [PFI-3], for which, in assay [1], the antiproliferative phenotype entry is given as “fail to display an antiproliferative phenotype”.
For the compound `Cc1ncsc1-c1ccc([C@H](CN2CCC(C(F)(F)F)CC2)NC(=O)[C@@H]2C[C@@H](O)CN2C(=O)[C@@H](n2cc([C@H]3CC[C@H](CN4CCC(c5ccc6c(c5)-n5c(nc(=O)c7c(Cl)cccc75)C65CCCCC5)CC4)CC3)nn2)C(C)(C)C)cc1` [Compound A83, (2S,4R)-1-((S)-2-(4-((1r,4S)-4-((4-(4′-chloro-5′-oxo-5′H-spiro[cyclohexane-1,7′-indolo[1,2-a]quinazolin]-10′-yl)piperidin-1-yl)methyl)cyclohexyl)-1H-1,2,3-triazol-1-yl)-3,3-dimethylbutanoyl)-4-hydroxy-N-(®-1-(4-(4-methylthiazol-5-yl)phenyl)-2-(4-(trifluoromethyl)piperidin-1-yl)ethyl)pyrrolidine-2-carboxamide], the DC50 was < 10 nM on SMARCA2 (setting [2]) and > 1000 nM on SMARCA4 (setting [3]). In addition, the Dmax on SMARCA2 (setting [2]) was > 90%; on SMARCA4 (setting [4]) it was 50 to 69%.
As to `Cc1ncsc1-c1ccc([C@H](C)NC(=O)[C@@H]2C[C@@H](O)CN2C(=O)[C@@H](n2cc(CCN3CCC(c4ccc5c(c4)-n4c(nc(=O)c6c(Br)cccc64)C54CCCCC4)CC3)nn2)C(C)(C)C)cc1` [Compound A48, (2S,4R)-1-((S)-2-(4-(2-(4-(4′-bromo-5′-oxo-5′H-spiro[cyclohexane-1,7′-indolo[1,2-a]quinazolin]-10′-yl)piperidin-1-yl)ethyl)-1H-1,2,3-triazol-1-yl)-3,3-dimethylbutanoyl)-4-hydroxy-N—((S)-1-(4-(4-methylthiazol-5-yl)phenyl)ethyl)pyrrolidine-2-carboxamide], on SMARCA2 (setting [2]), the “SMARC A2 Hela HiBit Dmax (%)” value is “A (A (>90% degradation))”. Moreover, the DC50 on SMARCA2 was < 100 nM; on SMARCA4, 100 to 500 nM. Besides, the “SMARC A4 Hela HiBit Dmax(%)” value at SMARCA4 (setting [3]) is given as “C (C (50-69% degradation))”.
On to `Cc1ncsc1-c1ccc([C@H](CN2CC(C)(F)C2)NC(=O)[C@@H]2C[C@@H](O)CN2C(=O)[C@@H](n2cc([C@H]3CC[C@H](CN4CCC(c5ccc6c(c5)-n5c(nc(=O)c7c(Cl)cccc75)C65CCCCC5)CC4)CC3)nn2)C(C)(C)C)cc1` [Compound A74, (2S,4R)-1-((S)-2-(4-((1r,4S)-4-((4-(4′-chloro-5′-oxo-5′H-spiro[cyclohexane-1,7′-indolo[1,2-a]quinazolin]-10′-yl)piperidin-1-yl)methyl)cyclohexyl)-1H-1,2,3-triazol-1-yl)-3,3-dimethylbutanoyl)-N—((R)-2-(3-fluoro-3-methylazetidin-1-yl)-1-(4-(4-methylthiazol-5-yl)phenyl)ethyl)-4-hydroxypyrrolidine-2-carboxamide], for which the values for the DC50 at SMARCA2 (setting [2]) and on SMARCA4 (setting [3]) were < 100 nM and > 1000 nM, respectively. For the same compound, the Dmax at SMARCA2 (setting [2]) is > 90%; at SMARCA4 (Hela SMARCA4-HiBiT cells, 24 hours treatment, read-out: SMARC A4 Hela HiBit Dmax(%)), 50 to 69%.
With `Cc1ncsc1-c1ccc([C@@H](NC(=O)[C@@H]2C[C@@H](O)CN2C(=O)[C@@H](n2cc(C3CC3)nn2)C(C)(C)C)C(=O)N2CCC(N3CCC(c4ccc5c(c4)-n4c(nc(=O)c6c(Br)cccc64)C54CCCCC4)CC3)CC2)cc1` [Compound A138, (2S,4R)—N—((R)-2-(4-(4′-bromo-5′-oxo-5′H-spiro[cyclohexane-1,7′-indolo[1,2-a]quinazolin]-10′-yl)-[1,4′-bipiperidin]-1′-yl)-1-(4-(4-methylthiazol-5-yl)phenyl)-2-oxoethyl)-1-((S)-2-(4-cyclopropyl-1H-1,2,3-triazol-1-yl)-3,3-dimethylbutanoyl)-4-hydroxypyrrolidine-2-carboxamide], the DC50 on SMARCA2 (setting [2]) and at SMARCA4 (setting [3]) was < 10 nM each time. Further, the Dmax on SMARCA2 (setting [2]) and at SMARCA4 (setting [4]) was > 90% in each case.
